Laboratory results from US20230105869A1, “C5aR INHIBITOR REDUCTION OF URINARY sCD163” (CHEMOCENTRYX, INC., priority 2017, published 2023).
Entries after “also recorded” stand apart in the source; their conditions may differ. Marks after values point to notes of the source that are not given here.

Key:
urinary sCD163 = experiment: Urine sCD163/creatinine ratio (ELISA) in clinical trial of AAV patients; type: in vivo, human; settings: for Urine sCD163/creatinine, Geo mean: all on IV cyclophosphamide or rituximab; for Time course of decrease of urine sCD163 (sCD163/creatinine), in words: versus baseline
Description: The clinical trial results presented herein comprised 3 patient groups: (1) Full dose prednisone (60 mg), standard of care; (2) Avacopan 30 mg b.i.d. plus low dose prednisone (20 mg); (3) Avacopan 30 mg b.i.d. plus no prednisone. All patients received either IV cyclophosphamide or IV rituximab. sCD163 (ELISA) and creatinine were measured pre-dose, and at days 8, 15, 29, 57, and 85. The groupings are further described below in Table 1. [table] Mid-stream urine samples were collected with a clean catch method and were shipped to the central laboratory refrigerated the same day for analysis of creatinine, albumin and UACR. Another fraction of urine was centrifuged at 1200 g and 2-8° C. for 10 minutes. Supernatant was aliquoted into cryovials and stored at -70° C. until analysis. Urine sCD163 and MCP-1 were analyzed by ELISA in complete subject sets using ELISA kits from R&D systems. Urine sCD163/creatinine ratios, UACR, and urine MCP-1/creatinine ratios were log transformed for normal distribution. Change from baseline in urine sCD163/creatinine ratios for each time point within group was analyzed by the mixed effects model for repeated measures. P<0.05 was considered as statistically significant.

[1] = tested on: ANCA-associated vasculitis (AAV); experiment: Disease activity and health-related quality of life in clinical trial of AAV patients; type: in vivo, human
Description: The clinical trial results presented herein comprised 3 patient groups: (1) Full dose prednisone (60 mg), standard of care; (2) Avacopan 30 mg b.i.d. plus low dose prednisone (20 mg); (3) Avacopan 30 mg b.i.d. plus no prednisone. All patients received either IV cyclophosphamide or IV rituximab. sCD163 (ELISA) and creatinine were measured pre-dose, and at days 8, 15, 29, 57, and 85. The groupings are further described below in Table 1. [table] […] Panel A plots the Birmingham Vasculitis Activity Score; Panel B plots the Urinary Albumin: creatinine Ratio; Panel C plots the Health-related quality-of-life measurement EQ-5D-5L visual analog scale , expressed as mean +/- SEM over the treatment period; Panel D and Panel E plot the health-related quality-of-life measurement Medical Outcomes Study SF-36 version 2 Physical Functioning and Role Emotional components, expressed as mean +/- SEM over the treatment period.

[2] = D8, Avacopan 30 mg BID where given
[3] = D15, Avacopan 30 mg BID where given
[4] = D29, Avacopan 30 mg BID where given
[5] = D57, Avacopan 30 mg BID where given
[6] = D85, Avacopan 30 mg BID where given

Row | Structure (SMILES) | Urine sCD163/creatinine, Geo mean (urinary sCD163; [2]) | Urine sCD163/creatinine, Geo mean (urinary sCD163; [3]) | Urine sCD163/creatinine, Geo mean (urinary sCD163; [4]) | Urine sCD163/creatinine, Geo mean (urinary sCD163; [5]) | Urine sCD163/creatinine, Geo mean (urinary sCD163; [6]) | Time course of decrease of urine sCD163 (sCD163/creatinine), in words (urinary sCD163) | Disease activity (Birmingham Vasculitis Activity Score), in words ([1]; FIG. 1A) | Health-related quality of life (EQ-5D-5L, SF-36 v2), in words ([1]; FIGS. 1C-1E) | Time course of decrease of urine sCD163 (sCD163/creatinine), in words (urinary sCD163; listed as full-dose prednisone)
1 | Cc1ccc(NC(=O)[C@H]2CCCN(C(=O)c3c(C)cccc3F)[C@H]2c2ccc(NC3CCCC3)cc2)cc1C(F)(F)F [Avacopan] | 180* ng/mmole | 165* ng/mmole | 117** ng/mmole | 125* ng/mmole | 97* ng/mmole | reduced sCD163/creatinine markedly by day 8; also recorded: rapid reduction of sCD163; also recorded: decreased within one week | rapid decrease in diseases activity | significant improvement in health-related quality of life | 
2 | C[C@]12C=CC(=O)C=C1CC[C@@H]1[C@@H]2C(=O)C[C@@]2(C)[C@H]1CC[C@]2(O)C(=O)CO [Placebo + FD Prednisone, Prednisone, reference compound] | 300 ng/mmol | 249 ng/mmol | 220 ng/mmol | 116*** ng/mmole | 120** ng/mmole | decreased much later (by week 8) |  |  | did not show improvement in urinary sCD163 until day 57
